Test results taken from PMC3766871, “Separacenes A–D, Novel Polyene Polyols from the Marine Actinomycete, Streptomyces sp” (Marine Drugs, 2013).

Experiments:
[1] = biological target: T1, isocitrate lyase (ICL) (Candida albicans, UniProt Q9P8Q7); test: enzyme assay with purified ICL, glyoxylate phenylhydrazone formation at […] nm; format: biochemical
T1 construct: gene ICL1

[2] = biological target: T1, isocitrate lyase (ICL); test: positive control in enzyme assay with purified ICL, glyoxylate phenylhydrazone formation at […] nm; format: biochemical

T1 sequence (Q9P8Q7 whole entry): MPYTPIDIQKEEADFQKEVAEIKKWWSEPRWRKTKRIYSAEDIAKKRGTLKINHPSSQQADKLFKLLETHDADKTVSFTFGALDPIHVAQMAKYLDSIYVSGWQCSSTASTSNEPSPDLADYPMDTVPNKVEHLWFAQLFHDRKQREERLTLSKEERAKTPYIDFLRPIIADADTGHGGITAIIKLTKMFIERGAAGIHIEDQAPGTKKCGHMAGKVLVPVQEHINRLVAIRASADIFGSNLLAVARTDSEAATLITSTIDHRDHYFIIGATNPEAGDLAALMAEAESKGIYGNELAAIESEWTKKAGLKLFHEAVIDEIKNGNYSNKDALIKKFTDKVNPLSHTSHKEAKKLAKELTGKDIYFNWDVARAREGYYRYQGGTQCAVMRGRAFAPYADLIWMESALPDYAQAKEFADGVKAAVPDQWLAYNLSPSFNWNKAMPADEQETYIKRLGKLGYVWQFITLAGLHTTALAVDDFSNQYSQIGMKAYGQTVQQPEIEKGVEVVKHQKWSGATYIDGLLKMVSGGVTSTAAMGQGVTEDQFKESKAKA

| Compound | IC50 [1] | IC50 [2] |
| --- | --- | --- |
| C=C[C@@H](O)[C@H](O)/C=C/C=C/C=C/C=C/[C@@H](O)[C@@H](C)O [compound 1, Separacene A] | 172 µM |  |
| O=C(O)CC[N+](=O)[O-] [3-Nitropropionic acid] |  | 11.3 µM |
